As usually defined, the MIC50 is the lowest concentration that inhibits either 50% of growth or 50% of the strains tested, depending on the study. Read a low MIC50 as greater potency. What is called MIC is the least concentration at which growth counts as inhibited.

In brackets after ≈: the same amount, converted by molar mass. Like-named read-outs stand apart in the source and are kept apart here.

Experimental findings from patent US20260144796A1, “Compounds and Methods for Improving Health” (Acurx Pharmaceuticals, Inc., priority 2022, published 2026) are described below.

One series concerns Flavonifractor plautii. The series can be described thus: MIC determination, stool Firmicute isolates. Type of series: cell-based. The following applies: N=1.
Another series relates to Enterococcus durans. The series can be described thus: MIC determination, stool Firmicute isolates. Type of series: cell-based.
Series [1] deals with C. difficile infection (CDI). The series can be described thus: Phase 2a CDI clinical trial, clinical outcome and safety. It is filed as in vivo, human. The procedure:
Phase 2a of this trial was an open label cohort of 10 subjects from study centers in the United States. In this cohort, 10 patients with diarrhea caused by mild or moderate C. difficile diagnosed via toxin EIA+ were treated with ibezapolstat 450 mg orally, twice daily for 10 days. […] Stool was collected during course of therapy and at follow up. Patient fecal samples were evaluated for C. difficile culture and microbiome changes. […] Favorable microbiome changes included overgrowth of Actinobacteria and Firmicutes phylum species while on therapy. These findings support that microbiome effects may be predictive of beneficial patient outcomes including low rates of recurrence. […] Safety evaluations included AE assessment, physical examination, vital signs, clinical laboratory tests (chemistry, hematology, and urinalysis), and electrocardiogramaty endpoints for all subjects were recorded including nature, frequency, and severity of AEs. AEs were assessed at each visit beginning from the time of enrollment and classified according to the Medical Dictionary for Regulatory Activities (MedDRA version 15.0). AE severity (mild, moderate, or severe) and causality (unrelated, possibly related, or probably related to the study medication) were assessed by the investigator at each site. Stool samples were cultured for C. difficile growth on a selective cycloserine-cefoxitin fructose agar (CCFA) at 37° C. under anaerobic conditions for 48 hours. (Gonzales-Luna A J, Carlson T J. Dotson K M, et al. […] Emerg Microbes Infect 2020; 9(1): 341-7). Isolates were determined to be C. difficile based on growth and morphology and confirmed by PCR for C. difficile toxin and tpi genes. C. difficile was strain typed using a PCR-based ribotyping method as previously described (Gonzales-Luna A J, Carlson T J, Dotson K M, et al. […] Emerg Microbes Infect 2020; 9(1):341-7). Minimum inhibitory concentrations (MICs) were determined for ibezapolstat by broth microdilution in 0.1% sodium taurocholate Brain Heart Infusion (BHI) media (Begum K, Basseres E, Miranda J. et al. […] Antimicrob Agents Chemother 2020; 64(8)). An intent-to-treat analysis of patients receiving at least one dose of ibezapolstat was conducted. Descriptive statistics were calculated for efficacy, safety/tolerability, and PK data generated using SAS version 9.4 software (SAS Institute, Inc Cary, NC, USA). Microbiome summary plots and data visualization was prepared using R software version 4.1.1 (R Core Team 2021, Vienna, Austria). (R Core Team (2013). R: A language and environment for statistical computing. R Foundation for Statistical Computing, Vienna, Austria.

As for `O=c1[nH]c(NCc2ccc(Cl)c(Cl)c2)nc2ncn(CCN3CCOCC3)c12` [Ibezapolstat, 2-((3,4-dichlorobenzyl)amino)-7-(2-morpholinoethyl)-1,7-dihydro-6H-purin-6-one], the MIC50 in the series with Flavonifractor plautii is 25 µg/mL (≈ 59.1 µM); in the series with Enterococcus durans (N=1), 100 µg/mL (≈ 236 µM). For the same molecule, the MIC amounted to 100 µg/mL (≈ 236 µM) in the series on Enterococcus durans (N=1, read-out: MIC Max) and 100 µg/mL (≈ 236 µM) in the series on Enterococcus durans (N=1, read-out: MIC Min). In series [1] (10 CDI patients, 450 mg orally twice daily 10 days), the adverse event profile result is “acceptable adverse event profile”. The molecule also displayed a clinical cure in series [1] (10 CDI patients, 450 mg orally twice daily 10 days, at day 12) of 100%. The same molecule had a sustained clinical cure in series [1] (10 CDI patients, 450 mg orally twice daily 10 days, at day 38) of 100%. In series [1] (Phase 2a CDI clinical trial), the success rate is on record as 100%. The “eradication of colonic C. difficile” value in series [1] (by day three of treatment) was “complete eradication”. The recurrences of infection entry in series [1] (followed for recurrence for 28±2 days) is “no recurrences”.
